Reference: PubChem BioAssay AID1963851 (Molecular Pharmacology Branch, DTP, NCI, 2024)

System: 188146-221-R-J1-PDC complex spheroid viability
Assay: Anticancer human tumor 188146-221-R-J1-PDC patient-derived colon adenocarcinoma cell line growth inhibition [POLQ]
Details: for IC50: curve of first compound; for viability, T/C: stronger effect = lower value; active means viability on the fitted dose curve at most 10% of control; inactive means the rest
Experimental: Multicellular complex tumor spheroid response to Polymerase (POL) inhibitors (novobiocin, ART-558, RP6685) in combination with a variety of drugs and investigational agents in selected tumor cell lines
The POL inhibitors (novobiocin, ART-558, and RP6685) were evaluated both individually and in combination with standard of care and investigational anticancer small molecules within a complex spheroid model of solid tumors. . Complex spheroids include a stromal component modeled by human endothelial cells (HUVEC) and fibroblasts modeled by human mesenchymal stem cells (MSCs). The concentration ranges selected for each drug and investigational agent were based upon clinically achievable concentrations if the clinical Cmax of the agent was known.
Compounds. The drugs and investigational agents: novobiocin (NSC847541), ART-558 (NSC835418), RP-6685 (NSC848927), peposertib (NSC802822), ceralasertib (NSC780249), elimusertib (NSC800525), camonsertib (NSC841442), AZD-1390 (NSC803789), olaparib (NSC753686), talazoparib (NSC767125), rucaparib (NSC756644), sotorasib (NSC818433), MRTX-1133 (NSC836407), SN-38 (NSC673596), topotecan (NSC609699), epotoside (NSC141540), doxorubicin (NSC123127), gemcitabine (NSC613327), 5-fluorouracil (NSC19893), paclitaxel (NSC125973), vemurafenib (NSC761431), MSA-2 (NSC828583), SN-011 (NSC837082), adavosertib (NSC754352), prexasertib (NSC758257), carboplatin (NSC241240) and oxaliplatin (NSC266046), were obtained from the National Cancer Institute (NCI) Developmental Therapeutics Program Chemical Repository (21). The FDA-approved anticancer drug set is available from the Developmental Therapeutics Program at https://dtp.cancer.gov/organization/dscb/obtaining/. […] The stock solutions were prepared in dimethyl sulfoxide (DMSO, Sigma-Aldrich, St. Louis, MO, cat. D2650), except for the platinum compounds which were prepared in saline (Quality Biological, Gaithersburg, MD, cat. 114-055-101), at 800-fold the tested concentration and stored at -70 degrees C prior to their use. All drugs and investigational agents were tested over a range starting from a high concentration at or near the clinical Cmax and decreasing in half-log increments. If the clinical Cmax for an agent had not been determined, the highest concentration tested was 10 microM, except for SN-38, which was tested at a high concentration of 1 microM.
Cell Culture. All cells were maintained in an incubator at 37 degrees C and 5% CO2 with 95% humidity. The PDC lines were cultured according to standard operating procedures established by the NCI PDMR (https://pdmr.cancer.gov). Table 3 of the manuscript, lists the cell lines along with the number of the three cell types plated to form the mct-spheroids and media for tumor cell growth. After thawing, all PDC lines, except 997537-175-T-J1-PDC and 415267-285-R-J2-PDC, were cultured in Matrigel-coated flasks prepared with a working solution of 1X Ham's F-12 nutrient mix, without supplementation (Thermo Fisher Scientific, cat. 11765054), 100 U/mL penicillin-streptomycin (Thermo Fisher Scientific, cat. 15140122), and 2.5% Matrigel (Corning Inc., Corning, NY, cat. 354248) for the first three passages. The two PDC lines 997537-175-T-J1-PDC and 415267-285-R-J2-PDC were cultured on uncoated flasks. The 857933-349-R-J2-PDC line was cultured in 6C/Colon 1B media containing advanced DMEM/F-12 (Thermo Fisher Scientific, cat. 12634028), 10 mM HEPES (Thermo Fisher Scientific, cat. 15630080), 1X GlutaMAX supplement (Thermo Fisher Scientific, cat. 35050061), 0.1 mg/mL primocin (InvivoGen, San Diego, CA, cat. ant-pm-2), 10% defined fetal bovine serum, heat inactivated (HyClone Laboratories Inc., Logan, UT, cat. SH30070.03HI), 50% L-WRN conditioned media (ATCC, cat. CRL-3276), 1.25 mM N-Acetyl-L-cysteine (Sigma-Aldrich, cat. A9165), 10 mM nicotinamide (Sigma-Aldrich, cat. N0636), 1X B-27 supplement (Thermo Fisher Scientific, cat. 17504044), 1X N-2 supplement (Thermo Fisher Scientific, cat. […]

[1] = second compound 0.0316 µM, first compound 0.0316 µM
[2] = second compound 0.0316 µM, first compound 0.1 µM
[3] = second compound 0.0316 µM, first compound 0.316 µM
[4] = second compound 0.0316 µM, first compound 1 µM
[5] = second compound 0.0316 µM, first compound 3.16 µM
[6] = second compound 0.0316 µM, first compound 10 µM
[7] = second compound 0.1 µM, first compound 0.0316 µM
[8] = second compound 0.1 µM, first compound 0.1 µM
[9] = second compound 0.1 µM, first compound 0.316 µM
[10] = second compound 0.1 µM, first compound 1 µM
[11] = second compound 0.1 µM, first compound 3.16 µM
[12] = second compound 0.1 µM, first compound 10 µM
[13] = second compound 0.316 µM, first compound 0.0316 µM
[14] = second compound 0.316 µM, first compound 0.1 µM
[15] = second compound 0.316 µM, first compound 0.316 µM
[16] = second compound 0.316 µM, first compound 1 µM
[17] = second compound 0.316 µM, first compound 3.16 µM
[18] = second compound 0.316 µM, first compound 10 µM
[19] = second compound 1 µM, first compound 0.0316 µM
[20] = second compound 1 µM, first compound 0.1 µM
[21] = second compound 1 µM, first compound 0.316 µM
[22] = second compound 1 µM, first compound 1 µM
[23] = second compound 1 µM, first compound 3.16 µM
[24] = second compound 1 µM, first compound 10 µM
[25] = second compound 3.16 µM, first compound 0.0316 µM
[26] = second compound 3.16 µM, first compound 0.1 µM
[27] = second compound 3.16 µM, first compound 0.316 µM
[28] = second compound 3.16 µM, first compound 1 µM
[29] = second compound 3.16 µM, first compound 3.16 µM
[30] = second compound 3.16 µM, first compound 10 µM
[31] = second compound 10 µM, first compound 0.0316 µM
[32] = second compound 10 µM, first compound 0.1 µM
[33] = second compound 10 µM, first compound 0.316 µM
[34] = second compound 10 µM, first compound 1 µM
[35] = second compound 10 µM, first compound 3.16 µM
[36] = second compound 10 µM, first compound 10 µM
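Further: spheroids exposed to compounds for seven days.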

C=CC(=O)N1CCN(c2nc(=O)n(-c3c(C)ccnc3C(C)C)c3nc(-c4c(O)cccc4F)c(F)cc23)C(C)C1 (centres undefined) + Nc1ccc(C#CCN(C(=O)Cc2ncc(C(F)(F)F)cc2C(F)(F)F)c2ccc(F)cc2)nn1
inactive: viability, T/C [1] 104% | viability, T/C [2] 107% | viability, T/C [3] 103% | viability, T/C [4] 96.5% | viability, T/C [5] 104% | viability, T/C [6] 84.9% | viability, T/C [7] 95.7% | viability, T/C [8] 108% | viability, T/C [9] 101% | viability, T/C [10] 102% | viability, T/C [11] 120% | viability, T/C [12] 85.6% | viability, T/C [13] 104% | viability, T/C [14] 99.2% | viability, T/C [15] 109% | viability, T/C [16] 82.2% | viability, T/C [17] 104% | viability, T/C [18] 78% | viability, T/C [19] 108% | viability, T/C [20] 91.6% | viability, T/C [21] 92.6% | viability, T/C [22] 113% | viability, T/C [23] 97.4% | viability, T/C [24] 103% | viability, T/C [25] 96.8% | viability, T/C [26] 108% | viability, T/C [27] 92.4% | viability, T/C [28] 104% | viability, T/C [29] 97.5% | viability, T/C [30] 101% | viability, T/C [31] 101% | viability, T/C [32] 104% | viability, T/C [33] 107% | viability, T/C [34] 107% | viability, T/C [35] 98.1% | viability, T/C [36] 96.4%
> 10 µM: IC50 (second compound 0.0316 µM) | IC50 (second compound 0.1 µM) | IC50 (second compound 0.316 µM) | IC50 (second compound 1 µM) | IC50 (second compound 3.16 µM) | IC50 (second compound 10 µM)

CCc1cc2c(N3CCc4c(cc(Cn5ccnc5)cc4-c4cn(C)nc4C(F)(F)F)C3=O)cc(C)nc2c(OC)n1 + Nc1ccc(C#CCN(C(=O)Cc2ncc(C(F)(F)F)cc2C(F)(F)F)c2ccc(F)cc2)nn1
7.01 µM: IC50 (second compound 3.16 µM)
6.94 µM: IC50 (second compound 0.316 µM)
inactive: viability, T/C [1] 89.1% | viability, T/C [2] 101% | viability, T/C [3] 74.4% | viability, T/C [4] 85.7% | viability, T/C [5] 71.2% | viability, T/C [6] 46.3% | viability, T/C [7] 119% | viability, T/C [8] 101% | viability, T/C [9] 103% | viability, T/C [10] 95% | viability, T/C [11] 66% | viability, T/C [12] 46% | viability, T/C [13] 120% | viability, T/C [14] 101% | viability, T/C [15] 94% | viability, T/C [16] 103% | viability, T/C [17] 66.1% | viability, T/C [18] 40.8% | viability, T/C [19] 107% | viability, T/C [20] 96.3% | viability, T/C [21] 104% | viability, T/C [22] 95.2% | viability, T/C [23] 85.5% | viability, T/C [24] 50.4% | viability, T/C [25] 111% | viability, T/C [26] 115% | viability, T/C [27] 109% | viability, T/C [28] 85.8% | viability, T/C [29] 68.8% | viability, T/C [30] 42.1% | viability, T/C [31] 93.7% | viability, T/C [32] 102% | viability, T/C [33] 99% | viability, T/C [34] 84.8% | viability, T/C [35] 69.5% | viability, T/C [36] 45.6%
> 10 µM: IC50 (second compound 1 µM)
8.08 µM: IC50 (second compound 10 µM)
8.54 µM: IC50 (second compound 0.0316 µM)
7.95 µM: IC50 (second compound 0.1 µM)
